Measured values taken from patent publication US8952024B2, “Herbicidal pyrimidone derivatives” (E I du Pont de Nemours and Company, priority 2009, dated 2015).

Legend:
Type in all cases: in vivo
[1] = test system: barnyardgrass (Echinochloa crus-galli); test: Test A pre-/postemergence plant response
Text: (§1) Seeds of barnyardgrass (Echinochloa crus-galli), large crabgrass (Digitaria sanguinalis), giant foxtail (Setaria faberii), morningglory (Ipomoea spp.), pigweed (Amaranthus retroflexus), velvetleaf (Abutilon theophrasti), wheat (Triticum aestivum) and corn (Zea mays) were planted into a blend of loam soil and sand and treated preemergence with a directed soil spray using test chemicals formulated in a non-phytotoxic solvent mixture which included a surfactant. At the same time these species were also treated with postemergence applications of test compounds formulated in the same manner.
(§2) Plants ranged in height from two to ten cm and were in the one- to two-leaf stage for the postemergence treatment. Treated plants and untreated controls were maintained in a greenhouse for approximately ten days, after which time all treated plants were compared to untreated controls and visually evaluated for injury. Plant response ratings, summarized in Table A, are based on a 0 to 100 scale where 0 is no effect and 100 is complete control. A dash (-) response means no test result.

[2] = test system: corn (Zea mays); test: Test A pre-/postemergence plant response
Text: as §1, §2

[3] = test system: giant foxtail (Setaria faberii); test: Test A pre-/postemergence plant response
Text: as §1, §2

[4] = test system: large crabgrass (Digitaria sanguinalis); test: Test A pre-/postemergence plant response
Text: as §1, §2

[5] = test system: morningglory (Ipomoea spp.); test: Test A pre-/postemergence plant response
Text: as §1, §2

[6] = test system: pigweed (Amaranthus retroflexus); test: Test A pre-/postemergence plant response
Text: as §1, §2

[7] = test system: velvetleaf (Abutilon theophrasti); test: Test A pre-/postemergence plant response
Text: as §1, §2

[8] = test system: wheat (Triticum aestivum); test: Test A pre-/postemergence plant response
Text: as §1, §2

[9] = test system: barnyardgrass (Echinochloa crus-galli); test: Test B flooded paddy test; conditions: for Plant response rating, Flood, Barnyardgrass: 250 g ai/ha, flooded paddy test, visual rating on 0 to 100 scale (0 no effect, 100 complete control) after 13 to 15 days; for Plant response rating, Barnyardgrass: Flood (flooded paddy test), 13 to 15 days
Text: (§3) Plant species in the flooded paddy test consisted of rice (Oryza sativa), umbrella sedge (Cyperus difformis), ducksalad (Heteranthera limosa) and barnyardgrass (Echinochloa crus-galli) grown to the 2-leaf stage for testing. At the time of treatment, test pots were flooded with water to 3 cm above the soil surface, treated by application of test compounds directly to the paddy water, and then maintained at that water depth for the duration of the test.
(§4) Treated plants and controls were maintained in a greenhouse for 13 to 15 days, after which time all treated plants were visually evaluated and compared to controls. Plant response ratings, summarized in Table B, are based on a scale of 0 to 100 where 0 is no effect and 100 is complete control. A dash (-) response means no test result.

[10] = test system: ducksalad (Heteranthera limosa); test: Test B flooded paddy test; conditions: for Plant response rating, Flood, Ducksalad: 250 g ai/ha, flooded paddy test, visual rating on 0 to 100 scale (0 no effect, 100 complete control) after 13 to 15 days; for Plant response rating, Ducksalad: Flood (flooded paddy test), 13 to 15 days
Text: as §3, §4

[11] = test system: rice (Oryza sativa); test: Test B flooded paddy test; conditions: for Plant response rating, Flood, Rice: 250 g ai/ha, flooded paddy test, visual rating on 0 to 100 scale (0 no effect, 100 complete control) after 13 to 15 days; for Plant response rating, Rice: Flood (flooded paddy test), 13 to 15 days
Text: as §3, §4

[12] = test system: umbrella sedge (Cyperus difformis); test: Test B flooded paddy test; conditions: for Plant response rating, Flood, Sedge, Umbrella: 250 g ai/ha, flooded paddy test, visual rating on 0 to 100 scale (0 no effect, 100 complete control) after 13 to 15 days; for Plant response rating, Sedge, Umbrella: Flood (flooded paddy test), 13 to 15 days
Text: as §3, §4

[13] = Postemergence, 125 g ai/ha, visual injury, 0 to 100 scale (0 no effect, 100 complete control), approx. ten days
[14] = Postemergence, 500 g ai/ha, 0 to 100 scale, 0 = no effect, 100 = complete control, approx. ten days
[15] = Preemergence, 125 g ai/ha, 0 to 100 scale, 0 = no effect, 100 = complete control
[16] = Preemergence, 500 g ai/ha, visual injury, 0 to 100 scale (0 no effect, 100 complete control), approx. ten days
[17] = 62 g ai/ha, scale 0 to 100, 0 is no effect, 100 is complete control
[18] = 31 g ai/ha, scale of 0 to 100 where 0 is no effect and 100 is complete control
[19] = 62 g ai/ha, scale of 0 to 100 where 0 is no effect and 100 is complete control
[20] = 125 g ai/ha, scale 0 to 100, 0 is no effect, 100 is complete control

Compound: Cc1cc(Cl)ccc1-n1c(-c2ccccc2)ncc(C(=O)C2=C(O)CCCC2=O)c1=O [Compound 43]
- Barnyardgrass plant response rating [1, 13]: 70
- Plant response rating, Barnyardgrass [1, 14]: 90
- Plant response rating, Barnyardgrass [1, 15]: 10
- Plant response rating, Barnyardgrass [1, 16]: 80
- Corn plant response rating [2, 13]: 0
- Plant response rating, Corn [2, 14]: 50
- Plant response rating, Corn [2, 15]: 0
- Plant response rating, Corn [2, 16]: 0
- Foxtail, Giant plant response rating [3, 13]: 60
- Plant response rating, Foxtail, Giant [3, 14]: 80
- Plant response rating, Foxtail, Giant [3, 15]: 10
- Plant response rating, Foxtail, Giant [3, 16]: 70
- Crabgrass, Large plant response rating [4, 13]: 70
- Plant response rating, Crabgrass, Large [4, 14]: 90
- Plant response rating, Crabgrass, Large [4, 15]: 50
- Plant response rating, Crabgrass, Large [4, 16]: 100
- Morningglory plant response rating [5, 13]: 20
- Plant response rating, Morningglory [5, 14]: 80
- Plant response rating, Morningglory [5, 15]: 0
- Plant response rating, Morningglory [5, 16]: 10
- Pigweed plant response rating [6, 13]: 100
- Plant response rating, Pigweed [6, 14]: 100
- Plant response rating, Pigweed [6, 15]: 90
- Plant response rating, Pigweed [6, 16]: 100
- Velvetleaf plant response rating [7, 13]: 100
- Plant response rating, Velvetleaf [7, 14]: 100
- Plant response rating, Velvetleaf [7, 15]: 60
- Plant response rating, Velvetleaf [7, 16]: 100
- Wheat plant response rating [8, 13]: 0
- Plant response rating, Wheat [8, 14]: 0
- Plant response rating, Wheat [8, 15]: 0
- Plant response rating, Wheat [8, 16]: 0
- Plant response rating, Flood, Barnyardgrass [9]: 20
- Plant response rating, Barnyardgrass [9, 17]: 20
- Plant response rating, Flood, Ducksalad [10]: 80
- Plant response rating, Ducksalad [10, 17]: 70
- Plant response rating, Flood, Rice [11]: 40
- Plant response rating, Rice [11, 17]: 0
- Plant response rating, Flood, Sedge, Umbrella [12]: 80
- Plant response rating, Sedge, Umbrella [12, 17]: 30

Compound: CC(C)c1ncc(C(=O)C2=C(O)CCCC2=O)c(=O)n1-c1ccccc1 [Compound 60]
- Barnyardgrass plant response rating [1, 13]: 60
- Plant response rating, Barnyardgrass [1, 14]: 90
- Plant response rating, Barnyardgrass [1, 15]: 60
- Plant response rating, Barnyardgrass [1, 16]: 90
- Corn plant response rating [2, 13]: 0
- Plant response rating, Corn [2, 14]: 10
- Plant response rating, Corn [2, 15]: 0
- Plant response rating, Corn [2, 16]: 10
- Foxtail, Giant plant response rating [3, 13]: 80
- Plant response rating, Foxtail, Giant [3, 14]: 90
- Plant response rating, Foxtail, Giant [3, 15]: 60
- Plant response rating, Foxtail, Giant [3, 16]: 90
- Crabgrass, Large plant response rating [4, 13]: 90
- Plant response rating, Crabgrass, Large [4, 14]: 100
- Plant response rating, Crabgrass, Large [4, 15]: 90
- Plant response rating, Crabgrass, Large [4, 16]: 100
- Morningglory plant response rating [5, 13]: 60
- Plant response rating, Morningglory [5, 14]: 90
- Plant response rating, Morningglory [5, 16]: 80
- Pigweed plant response rating [6, 13]: 100
- Plant response rating, Pigweed [6, 14]: 100
- Plant response rating, Pigweed [6, 15]: 90
- Plant response rating, Pigweed [6, 16]: 100
- Velvetleaf plant response rating [7, 13]: 100
- Plant response rating, Velvetleaf [7, 14]: 100
- Plant response rating, Velvetleaf [7, 15]: 80
- Plant response rating, Velvetleaf [7, 16]: 100
- Wheat plant response rating [8, 13]: 20
- Plant response rating, Wheat [8, 14]: 50
- Plant response rating, Wheat [8, 15]: 0
- Plant response rating, Wheat [8, 16]: 40
- Plant response rating, Flood, Barnyardgrass [9]: 40
- Plant response rating, Barnyardgrass [9, 18]: 0
- Plant response rating, Barnyardgrass [9, 19]: 0
- Plant response rating, Barnyardgrass [9, 20]: 30
- Plant response rating, Flood, Ducksalad [10]: 60
- Plant response rating, Ducksalad [10, 18]: 0
- Plant response rating, Ducksalad [10, 19]: 0
- Plant response rating, Ducksalad [10, 20]: 40
- Plant response rating, Flood, Rice [11]: 15
- Plant response rating, Rice [11, 18]: 0
- Plant response rating, Rice [11, 19]: 0
- Plant response rating, Rice [11, 20]: 0
- Plant response rating, Flood, Sedge, Umbrella [12]: 85
- Plant response rating, Sedge, Umbrella [12, 18]: 0
- Plant response rating, Sedge, Umbrella [12, 19]: 30
- Plant response rating, Sedge, Umbrella [12, 20]: 75
